Results published in patent US11840686B2, “Modulation of prekallikrein (PKK) expression” (Ionis Pharmaceuticals, Inc., priority 2013, dated 2023).
Strand notation (5' to 3'): a small letter for the sugar, then the base; units joined by * are phosphorothioate-linked, units joined directly phosphodiester-linked; [ ] holds rarer units or linkages, { } end groups; capitals alone tell only the bases. e = 2'-O-(2-methoxyethyl) (MOE); [5mC] = 5-methylcytosine; d = 2'-deoxy (DNA)

System: human PKK mRNA
Experiment: Antisense inhibition of human PKK mRNA in HepaRG cells, 5,000 nM (Example 2)
Assay type: cell-based
Outline: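 Chimeric MOE gapmers with full phosphorothioate backbones were tested once at 5,000 nM in electroporated HepaRG cells. After about 24 hours, quantitative PCR measured PKK mRNA relative to untreated control cells.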

[1] = HepaRG cells, 5,000 nM antisense oligonucleotide, 5-10-5 gapmers, Table 16
[2] = Table 7, HepaRG cells, electroporation with 5,000 nM antisense oligonucleotide, approx. 24 hours, PKK mRNA by RT-PCR (RTS3454), relative to untreated control cells
[3] = Table 8, HepaRG cells, electroporation with 5,000 nM antisense oligonucleotide, approx. 24 hours, PKK mRNA by RT-PCR (RTS3454), relative to untreated control cells
[4] = human PKK mRNA, HepaRG cells, 5-10-5 motif oligonucleotides targeting SEQ ID NO: 1 and 10
[5] = HepaRG cells, electroporation, 5,000 nM antisense oligonucleotide, approx. 24 hours, primer probe set RTS3454, relative to untreated control cells, Table 12
[6] = HepaRG cells, 5,000 nM antisense oligonucleotide, 5-10-5 gapmers, Table 17
[7] = HepaRG cells, electroporation, 5,000 nM antisense oligonucleotide, approx. 24 hours, primer probe set RTS3454, relative to untreated control cells, Table 11
[8] = Table 9 experiment, HepaRG cells, 20,000 cells per well, electroporation with 5,000 nM antisense oligonucleotide, approx. 24 hours, PKK mRNA by RT-PCR (RTS3454), relative to untreated control cells
[9] = Table 10 experiment, HepaRG cells, 20,000 cells per well, electroporation with 5,000 nM antisense oligonucleotide, approx. 24 hours, PKK mRNA by RT-PCR (RTS3454), relative to untreated control cells
[10] = Table 13, human PKK mRNA in HepaRG cells, 5-10-5 gapmers

With “546946 (eA*e[5mC]*eT*e[5mC]*e[5mC]*d[5mC]*dA*dT*d[5mC]*dT*dA*d[5mC]*dT*d[5mC]*d[5mC]*e[5mC]*e[5mC]*e[5mC]*eA*eT; antisense) [compound 546946]” the “% inhibition” value [1] was 41%.

With “547591 (e[5mC]*e[5mC]*eT*eA*eT*dA*dA*d[5mC]*dT*dA*dT*dA*dA*d[5mC]*dA*eG*eT*eA*eT*e[5mC]; antisense) [compound 547591]” the “% inhibition” value (human PKK mRNA in HepaRG cells, 5-10-5 gapmers, Table 14) was 23%.

For “546226 (antisense e[5mC]*e[5mC]*eA*eT*eA*d[5mC]*dA*dT*dT*dT*dG*dT*dA*dT*dA*eG*eA*eA*eT*eG) [compound 546226]”, the “% inhibition” value [2] was 37%.

With “546281 (eG*eT*eA*eA*e[5mC]*d[5mC]*dA*dG*dA*dG*d[5mC]*dT*d[5mC]*d[5mC]*d[5mC]*eT*eT*eG*eT*eG; antisense) [compound 546281]” the “% inhibition” value [3] was 85%.

For “546886 (e[5mC]*eT*eA*eT*eG*dT*d[5mC]*dA*d[5mC]*dT*dG*dT*dA*d[5mC]*d[5mC]*eT*eA*eT*eA*eA; antisense) [compound 546886]”, the “% inhibition” value [4] was 80%.

For “546453 (e[5mC]*eT*e[5mC]*eA*eT*dT*dG*dT*dT*dG*dT*dG*dT*dG*dG*e[5mC]*e[5mC]*e[5mC]*eT*e[5mC]; antisense) [compound 546453]”, the “% inhibition” value [5] was 82%.

With “547363 (eG*eG*e[5mC]*eA*eA*d[5mC]*dA*dT*d[5mC]*d[5mC]*dA*d[5mC]*dA*dT*d[5mC]*eT*eG*eA*eG*eA; antisense) [compound 547363]” the “% inhibition” value (HepaRG cells, electroporation with 5,000 nM antisense oligonucleotide, approximately 24 hours, PKK mRNA by RT-PCR (RTS3454), relative to untreated control cells, Table 6 experiment) was 84%.

In the case of “547384 (eA*eA*eA*e[5mC]*eA*dT*dT*dT*d[5mC]*dT*dT*dT*dG*dT*dG*eA*e[5mC]*eT*e[5mC]*eG; antisense) [compound 547384]”, the “% inhibition” value [2] was 50%.

In the case of “547554 (antisense eG*e[5mC]*eT*e[5mC]*eT*dG*dA*dT*dT*dG*dG*dG*dT*d[5mC]*dA*e[5mC]*e[5mC]*eA*e[5mC]*eA) [compound 547554]”, the “% inhibition” value [5] was 50%.

For “548721 (DNA e[5mC]*eT*eG*dT*dA*d[5mC]*dT*dA*dG*dT*dT*dT*d[5mC]*e[5mC]*eT*eA*eT; antisense) [compound 548721]”, the “% inhibition” value (HepaRG cells, 5,000 nM antisense oligonucleotide, human PKK mRNA, Table 18) was 27%.

With “547015 (eG*eG*eT*eG*eG*dT*dG*dG*dG*dA*dT*dT*dG*dG*dT*eG*e[5mC]*eT*eG*eA; antisense) [compound 547015]” the “% inhibition” value [6] was 55%.

“547519 (antisense e[5mC]*e[5mC]*eA*eG*eA*d[5mC]*dA*dT*dT*dG*dT*d[5mC]*d[5mC]*dT*d[5mC]*eA*eG*e[5mC]*eA*eG) [compound 547519]” was tested, and the “% inhibition” value [7] was 76%.

With “547732 (eA*eG*eG*eA*eT*dT*dG*dG*dT*dG*dG*dT*dG*dG*dG*eA*eT*eT*eG*eG; antisense) [compound 547732]” the “% inhibition” value [6] was 0%.

“547063 (e[5mC]*eG*eT*e[5mC]*eA*dT*dG*d[5mC]*dT*dT*dA*d[5mC]*d[5mC]*dT*dT*eT*e[5mC]*eT*e[5mC]*e[5mC]; antisense) [compound 547063]” was tested, and the “% inhibition” value [6] was 23%.

In the case of “547479 (antisense eT*eA*eT*eA*eA*dT*d[5mC]*dT*dT*dG*dA*dT*dA*dT*d[5mC]*eT*eT*eT*eT*e[5mC]) [compound 547479]”, the “% inhibition” value [8] was 48% and the “% inhibition” value [9] was 9%.

For “546432 (eG*eA*e[5mC]*e[5mC]*e[5mC]*d[5mC]*dA*dA*d[5mC]*dA*dG*dA*d[5mC]*dA*dG*e[5mC]*e[5mC]*e[5mC]*eA*e[5mC]; antisense) [compound 546432]”, the “% inhibition” value [5] was 62%.

For “547559 (eG*eA*eG*e[5mC]*eA*d[5mC]*dA*dG*dA*dT*d[5mC]*dT*d[5mC]*dT*dT*e[5mC]*eA*eA*eG*eT; antisense) [compound 547559]”, the “% inhibition” value [10] was 69%.

With “546351 (antisense eT*eT*eG*e[5mC]*eT*d[5mC]*d[5mC]*d[5mC]*dT*dG*d[5mC]*dG*dG*dG*d[5mC]*eA*e[5mC]*eA*eG*e[5mC]) [compound 546351]” the “% inhibition” value [8] was 82% and the “% inhibition” value [9] was 60%.

In the case of “547669 (eA*e[5mC]*eA*eA*e[5mC]*dT*dA*dT*dA*dA*d[5mC]*dA*dG*dT*dA*eT*e[5mC]*eA*e[5mC]*eT; antisense) [compound 547669]”, the “% inhibition” value [4] was 0%.

“546359 (antisense eG*e[5mC]*eA*eT*e[5mC]*dT*dG*dA*dG*d[5mC]*dT*dT*dT*dT*d[5mC]*e[5mC]*eA*eT*e[5mC]*eA) [compound 546359]” was tested, and the “% inhibition” value [7] was 79%.

“547463 (antisense eT*eA*eG*eG*e[5mC]*dA*dT*dA*dT*dT*dG*dG*dT*dT*dT*eT*eT*eG*eG*eA) [compound 547463]” was tested, and the “% inhibition” value [8] was 74% and the “% inhibition” value [9] was 84%.

With “546765 (eG*eT*eG*eT*e[5mC]*d[5mC]*dA*dG*dA*dA*dT*dA*d[5mC]*dT*dG*e[5mC]*e[5mC]*e[5mC]*e[5mC]*eA; antisense) [compound 546765]” the “% inhibition” value [10] was 82%.

In the case of “547646 (e[5mC]*eT*eA*eT*eA*dT*d[5mC]*dA*d[5mC]*dT*dG*dT*dA*d[5mC]*d[5mC]*eT*eA*eT*eA*eA; antisense) [compound 547646]”, the “% inhibition” value [4] was 23%.

For “547388 (eT*eA*eT*eG*eG*dT*dG*dT*dT*dT*dT*d[5mC]*dT*dT*dG*eA*eG*eG*eA*eG; antisense) [compound 547388]”, the “% inhibition” value [2] was 55%.

For “546425 (eG*eG*eT*e[5mC]*eA*dA*dT*d[5mC]*dT*dG*dA*d[5mC]*dT*dA*dG*eT*eG*eA*eA*eT; antisense) [compound 546425]”, the “% inhibition” value [5] was 69%.

With “547492 (antisense e[5mC]*eA*eG*eT*e[5mC]*d[5mC]*dA*dT*dG*dT*dA*d[5mC]*dT*d[5mC]*dA*eG*e[5mC]*eG*eA*e[5mC]) [compound 547492]” the “% inhibition” value [7] was 62%.

In the case of “547465 (antisense eA*eA*eA*eT*eT*dG*dT*dG*d[5mC]*dT*dT*dG*dT*dG*dT*e[5mC]*eA*e[5mC]*e[5mC]*eT) [compound 547465]”, the “% inhibition” value [8] was 88% and the “% inhibition” value [9] was 85%.

For “546770 (eG*eT*eG*eG*eA*d[5mC]*dG*dA*d[5mC]*dT*dG*d[5mC]*d[5mC]*d[5mC]*dT*eG*eT*eG*e[5mC]*e[5mC]; antisense) [compound 546770]”, the “% inhibition” value [10] was 74%.

“547279 (antisense eA*eA*eA*eA*e[5mC]*dA*d[5mC]*dA*dA*dT*dT*dG*d[5mC]*dT*dT*e[5mC]*eT*eT*eG*eG) [compound 547279]” was tested, and the “% inhibition” value (HepaRG cells, electroporation with 5,000 nM antisense oligonucleotide, approximately 24 hours, PKK mRNA by RT-PCR (RTS3454), relative to untreated control cells, Table 5 experiment) was 69%.

In the case of “546719 (e[5mC]*e[5mC]*e[5mC]*e[5mC]*e[5mC]*dA*dT*dG*dT*d[5mC]*d[5mC]*dA*dT*dG*dG*eA*e[5mC]*eT*eT*eT; antisense) [compound 546719]”, the “% inhibition” value [5] was 55%.

With “547711 (antisense e[5mC]*e[5mC]*eT*eT*eT*dA*dG*d[5mC]*d[5mC]*dA*d[5mC]*dT*d[5mC]*d[5mC]*dT*e[5mC]*eT*eT*eG*e[5mC]) [compound 547711]” the “% inhibition” value [1] was 45%.

“547381 (eT*eG*eT*eG*eA*d[5mC]*dT*d[5mC]*dG*dA*dT*dT*dT*dT*d[5mC]*e[5mC]*eA*eT*eA*e[5mC]; antisense) [compound 547381]” was tested, and the “% inhibition” value [2] was 49%.

“546336 (antisense eT*e[5mC]*eA*eT*eT*dT*dG*dT*dT*dA*d[5mC]*d[5mC]*dA*dA*dA*eG*eG*eA*eA*eT) [compound 546336]” was tested, and the “% inhibition” value [8] was 66% and the “% inhibition” value [9] was 73%.

With “546300 (antisense eT*eA*eA*eT*eG*dT*d[5mC]*dT*dG*dA*d[5mC]*dA*dG*dA*dT*eT*eT*eA*eA*eA) [compound 546300]” the “% inhibition” value [3] was 58%.

“546348 (antisense eG*e[5mC]*eA*eA*eA*d[5mC]*dT*dA*dA*dG*dG*dG*dA*d[5mC]*d[5mC]*eA*e[5mC]*e[5mC]*eT*eG) [compound 546348]” was tested, and the “% inhibition” value [8] was 79% and the “% inhibition” value [9] was 76%.

In the case of “546302 (antisense eT*eG*eA*eG*eA*dA*dA*dG*dG*dT*dG*dT*dA*dT*d[5mC]*eT*eT*eT*eT*eG) [compound 546302]”, the “% inhibition” value [3] was 87%.

For “547420 (e[5mC]*e[5mC]*eA*eT*eA*dG*dA*dT*dA*dA*dT*d[5mC]*dT*dT*dA*eA*eG*eA*eA*eA; antisense) [compound 547420]”, the “% inhibition” value [3] was 8%.

In the case of “546698 (eT*eG*e[5mC]*eA*eG*dA*dG*dT*dG*dT*d[5mC]*dA*dT*d[5mC]*dT*eG*e[5mC]*eG*eA*eA; antisense) [compound 546698]”, the “% inhibition” value [5] was 59%.
